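The compound was tested at five concentrations on cells cultured in 96-well plates, with a 48-hour exposure period. At the TGI there is no net growth.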

Assay in all cases: inhibition of tumour cell growth, NCI panel, 48 h
The subject of test [1] is A498 renal.
The subject of test [2] is SK-MEL-28 melanoma.
Test [3] concerns MDA-MB-231 breast.
For test [4], the system named is SNB-75 CNS.
Test [5] deals with DU-145 prostate.
In test [6] the test system is 786-0 renal.
For test [7], the system named is HL-60(TB) leukemia.
The test system of test [8] is OVCAR-5 ovarian.
The test system of test [9] is HOP-92 NSCLC.
Test [10] relates to HS 578T breast.
In test [11] the test system is SW-620 colon.
Test [12] deals with CAKI-1 renal.
The subject of test [13] is A549 NSCLC.

As to `CCN(CC)c1c(-c2c(OC(C)C)c(=O)c2=O)c(=O)n2ccsc2c1OC(C)=O`, the TGI in test [1], in [2], in [3], in test [4], in test [5] and in test [6] was above 100 µM in each case. Also, the TGI in test [7], in test [8], in test [9], in test [10], in [11] and in [12] was above 100 µM each time.

Take `CCOC(=O)c1nc(SC)sc1NC(=O)c1ccc(OC)cc1`: the TGI in test [13] was above 100 µM; in test [1], 84.6 µM; in test [2] it was above 100 µM; in test [3] it was above 100 µM; in test [5], above 100 µM; in [6], above 100 µM. Further, the TGI in test [7], in test [8], in test [9], in test [10], in test [11] and in [12] was above 100 µM in each case.

Turning to `NC(=O)N/N=C(\Cc1cc(=O)oc2cc(O)ccc12)C(=O)Nc1ccccc1C(N)=O`, the TGI in [13], in test [2], in test [3], in test [4], in test [5] and in test [6] was above 100 µM throughout. For the same compound, the TGI in [7], in test [8], in [9], in test [10], in test [11] and in [12] was above 100 µM each time.

`CCOC(=O)c1ccc(-c2onc(C)c2Br)[nH]1`: the TGI in test [13], in test [1], in test [2], in test [3], in test [4] and in test [5] was above 100 µM throughout. The TGI is above 100 µM in test [6]; above 100 µM in test [8]; 92 µM in test [9]; above 100 µM in test [10]; above 100 µM in test [11]; above 100 µM in test [12].

In the case of `Cc1cccc(C)c1NC(=S)N/C=C(\C#N)C(N)=O`, the TGI in test [13], in test [2], in test [3], in test [5], in test [6] and in test [8] was above 100 µM each time. The TGI in [9], in test [10], in test [11] and in test [12] was above 100 µM in each case.

For the compound `c1ccc(C/C(=N\Nc2nc3ccccc3[nH]2)c2ccccn2)cc1`, the TGI turned out to be 11.9 µM in test [13]; 1.37 µM in test [1]; 11 µM in test [2]; 13.4 µM in test [3]; 27.7 µM in [5]; 5.7 µM in test [6]. For the same compound, the TGI in test [8] turned out to be 8.14 µM; in test [9], 0.653 µM; in test [10] it was 20 µM; in [11], 15.1 µM; in test [12] it was 1.52 µM.

Regarding `C[C@]12CC[C@H]3[C@@H](CC=C4C[C@@H](N5CCCC5)CC[C@@]43C)[C@@H]1C/C(=C\c1ccc([N+](=O)[O-])cc1)[C@@H]2O`, the TGI in [13] amounted to 32.6 µM; in [1], 28.6 µM; in test [2], 28.2 µM; in test [3], 30.2 µM; in [5], 34.7 µM; in test [6], 17.9 µM. The TGI in [9] turned out to be 27.7 µM; in test [10], 40.3 µM; in test [11], 36.6 µM; in test [12], 27.6 µM.

`Cc1cccc(-c2cc(=O)c3cccnc3[nH]2)c1`: the TGI in test [13], in test [2], in test [3], in test [4], in [5] and in test [6] was above 100 µM in each case. In addition, the TGI in [7] was 0.654 µM; in test [8], above 100 µM; in test [9] it was above 100 µM; in test [10], above 100 µM; in [11], above 100 µM.

Take `COc1cc(O)c2c(=O)c3cccc(C)c3[nH]c2c1`: the TGI in test [13], in [1], in test [2], in test [3], in test [4] and in test [5] was above 10 µM in each case. Further, the TGI in [6], in [7], in [8], in test [10], in [11] and in test [12] was above 10 µM each time.

`O=C(O)CSC1=NCCN1`: the TGI in test [13], in test [1], in [2], in [3], in test [4] and in test [5] was above 100 µM in each case. Besides, the TGI in [6], in [8], in [9], in test [10], in test [11] and in test [12] was above 100 µM in each case.

Regarding `COC(=O)[C@H](Cc1ccccc1)NC(=O)N(CCN(CCC#N)C(=O)N[C@H](C(=O)OC)C(C)C)c1ccccc1`, the TGI in test [13], in [1], in test [2], in test [3], in [4] and in [5] was above 100 µM in each case. The TGI in test [6] is above 100 µM; in test [8], above 100 µM; in test [9], 80.5 µM; in test [10], above 100 µM; in test [11] it was above 100 µM; in [12] it was above 100 µM.

On to `CCO/C(O)=c1/s/c(=C2/SC(=S)N(c3ccc(C)cc3)C2=O)n(-c2ccccc2)c1=N`, for which the TGI was above 100 µM in test [13]; above 100 µM in test [1]; above 76.5 µM in test [2]; 59 µM in test [3]; 22 µM in test [4]; above 100 µM in [5]. Besides, the TGI in [6] is 77.4 µM; in test [7], above 100 µM; in test [8], above 100 µM; in [9] it was above 100 µM; in [10], 66.8 µM; in [11], above 100 µM.

The values above are taken from PubChem BioAssay (NCI).
